Measurements published in patent US8435976B2, “4-substituted pyridin-3-yl-carboxamide compounds and methods of use” (F. Hoffmann-La Roche, priority 2009, dated 2013).

Experiments:
PIM3 = molecular target: T1, PIM3 (Homo sapiens, UniProt Q86V86); test: Pim-3 kinase enzymatic assay (Caliper LC3000, FAM-Pimtide substrate); type: biochemical; details: 55 pM PIM3, 10 μM ATP, 90 minutes; read-out: PIM3 LC3K (Ki)
T1 construct: made in house
Method: (§1) Reaction Buffer contained 10 mM HEPES, pH 7.2, 10 mM MgCl2, 0.01% Tween 20, 2 mM DTT.
(§2) PIM reactions were carried out in a final volume of 10 μL per well in a 384-well plate. […] The separation of product and substrate was optimized by choosing voltages and pressure using Caliper's Optimizer software (Hopkinton, Mass.). The separation conditions used a downstream voltage of −500V, an upstream voltage of −2150V, and a screening pressure of −1.2 psi. […] Substrate conversion was calculated from the electrophoregram using HTS Well Analyzer software (Caliper Life Sciences, Hopkinton, Mass.). Ki values for the test compound were calculated.

PIM1 = molecular target: T2, PIM1 (Homo sapiens, UniProt P11309); test: Pim-1 kinase enzymatic assay (Caliper LC3000, FAM-Pimtide substrate); type: biochemical; details: 20 pM PIM1, 10 μM ATP, 90 minutes; read-out: PIM1 LC3K (Ki)
T2 construct: made in house
T2 sequence (P11309 whole entry): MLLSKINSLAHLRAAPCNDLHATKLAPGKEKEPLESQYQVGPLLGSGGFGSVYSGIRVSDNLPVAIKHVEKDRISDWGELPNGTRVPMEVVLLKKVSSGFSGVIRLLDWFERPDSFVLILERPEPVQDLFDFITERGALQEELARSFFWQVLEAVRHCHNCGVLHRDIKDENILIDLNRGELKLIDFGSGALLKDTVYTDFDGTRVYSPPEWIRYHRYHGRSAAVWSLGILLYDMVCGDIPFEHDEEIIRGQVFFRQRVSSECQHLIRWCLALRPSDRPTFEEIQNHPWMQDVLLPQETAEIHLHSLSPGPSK
Method: as §1, §2

PIM2 = molecular target: T3, PIM2 (Homo sapiens, UniProt Q9P1W9); test: Pim-2 kinase enzymatic assay (Caliper LC3000, FAM-Pimtide substrate); type: biochemical; details: 50 pM PIM2, 10 μM ATP, 90 minutes; read-out: PIM2 LC3K (Ki)
T3 construct: made in house
T3 sequence (Q9P1W9 whole entry): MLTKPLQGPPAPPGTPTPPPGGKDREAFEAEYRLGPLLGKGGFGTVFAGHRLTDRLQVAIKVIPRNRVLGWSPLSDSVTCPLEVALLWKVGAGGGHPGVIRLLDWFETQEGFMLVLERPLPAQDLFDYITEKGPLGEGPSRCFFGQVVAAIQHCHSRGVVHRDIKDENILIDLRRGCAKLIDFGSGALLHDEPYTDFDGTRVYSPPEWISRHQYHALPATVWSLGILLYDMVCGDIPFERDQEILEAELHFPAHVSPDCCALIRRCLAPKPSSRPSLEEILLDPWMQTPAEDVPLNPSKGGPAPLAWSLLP
Method: as §1, §2

MM1.S cells = test: MM1.S cell proliferation, 72 hours (Cell Titer Glo); type: cell-based; details: Homo sapiens, 72 hours, read-out: Prolif MM1S ATP (EC50)
Method: (§3) BaF3 parental line was obtained from the DSMZ repository. BaF3 lines transfected with PIM1 or PIM2 were generated. Mouse IL-3 was purchased from R&D Systems. G418 was purchased from Clontech. Media for BaF3 parental line contained RPMI, 10% FBS, 2 mM L-Glutamine, 2 ng/mL mIL-3. Media for BaF3 PIM1 & 2 lines contained RPMI, 10% FBS, 2 mM L-Glutamine, […]. Media for MM1.S line contained RPMI, 10% FBS, 2 mM L-Glutamine.
(§4) BaF3 parental cells, BaF3 PIM1 cells, BaF3 PIM2 cells, and MM1.S cells were seeded at 2 k/well, 5 k/well, 5 k/well, and 10 k/well respectively, in a 384-well plate, at 45 μL/well. Test compound was added at 5 μL/well. BaF3 cells (parental and transfected) were incubated overnight, while MM1.S cells were incubated for 72 hours at 37° C., 5% CO2. Cell Titer Glo Reagent (Promega) was added at 50 μL/well, the plates were incubated for 30 minutes, and their luminescence read on an HT Analyst. IC50/EC50 values for the test compound were calculated.

BaF3 PIM1 cells = BaF3 PIM1 cells (Homo sapiens, UniProt P11309); test: BaF3 PIM1 cell proliferation (Cell Titer Glo); type: cell-based; details: incubated overnight; read-out: Prolif BaF3_PIM1 (IC50)
Chain of BaF3 PIM1 cells (P11309 whole entry, change not shown): as the sequence (P11309 whole entry) above
Method: as §3, §4

BaF3 PIM2 cells = BaF3 PIM2 cells (Homo sapiens, UniProt Q9P1W9); test: BaF3 PIM2 cell proliferation (Cell Titer Glo); type: cell-based; details: incubated overnight; read-out: Prolif BaF3_PIM2 (IC50)
Chain of BaF3 PIM2 cells (Q9P1W9 whole entry, change not shown): as the sequence (Q9P1W9 whole entry) above
Method: as §3, §4

| Structure (SMILES) | Ki (PIM3) [nM] | Ki (PIM1) [nM] | Ki (PIM2) [nM] | EC50 (MM1.S cells) [nM] | GI50 (BaF3 PIM1 cells) [nM] | GI50 (BaF3 PIM2 cells) [nM] |
| --- | --- | --- | --- | --- | --- | --- |
| NC(=O)c1cccc(-c2nc(C(=O)Nc3cnccc3N3CCC[C@H](N)C3)c(N)s2)c1 [Example 22, (S)-5-amino-N-(4-(3-aminopiperidin-1-yl)pyridin-3-yl)-2-(3-carbamoylphenyl)thiazole-4-carboxamide] | 0.052 | 0.054 | 0.495 | 4700 | 520 | > 20000 |
| CCOc1ccc(F)c(-c2nc(C(=O)Nc3cnccc3N3CCC[C@H](N)C3)c(N)s2)c1F [Example 26, (S)-5-amino-N-(4-(3-aminopiperidin-1-yl)pyridin-3-yl)-2-(3-ethoxy-2,6-difluorophenyl)thiazole-4-carboxamide] | 0.022 | 0.014 | 0.15 | 148 | 28.2 | 2400 |
| COc1cc(F)c(-c2nc(C(=O)Nc3cnccc3N3CCC[C@H](N)C3)c(N)s2)c(F)c1 [Example 34, (S)-5-amino-N-(4-(3-aminopiperidin-1-yl)pyridin-3-yl)-2-(2,6-difluoro-4-methoxyphenyl)thiazole-4-carboxamide] | 0.022 | 0.012 | 0.0957 | 56.8 | 19.1 | > 2500 |
| Nc1[nH]c(-c2ccccc2)nc1C(=O)Nc1cnccc1N1CCC[C@H](N)C1 [Example 20, (S)-5-amino-N-(4-(3-aminopiperidin-1-yl)pyridin-3-yl)-2-phenyl-1H-imidazole-4-carboxamide] | 496 | 1200 | 4900 | – | – | – |
| Nc1sc(-c2ccncc2)nc1C(=O)Nc1cnccc1N1CCC[C@H](N)C1 [Example 33, (S)-5-amino-N-(4-(3-aminopiperidin-1-yl)pyridin-3-yl)-2-(pyridin-4-yl)thiazole-4-carboxamide] | – | 0.6 | 2.51 | 3500 | 410 | 13300 |
| CC(C)c1nc(C(=O)Nc2cnccc2N2CCC[C@H](N)C2)c(N)s1 [Example 36, (S)-5-amino-N-(4-(3-aminopiperidin-1-yl)pyridin-3-yl)-2-isopropylthiazole-4-carboxamide] | 3.77 | 2.18 | 8.69 | 14000 | 562 | – |
| Nc1sc(-c2cccc(Cl)c2)nc1C(=O)Nc1cnccc1N1CCC[C@H](N)C1 [Example 13, (S)-5-amino-N-(4-(3-aminopiperidin-1-yl)pyridin-3-yl)-2-(3-chlorophenyl)thiazole-4-carboxamide] | 0.04 | 0.102 | 0.403 | > 20000 | – | – |
| Nc1sc(C2CCCCC2)nc1C(=O)Nc1cnccc1N1CCC[C@H](N)C1 [Example 37, (S)-5-amino-N-(4-(3-aminopiperidin-1-yl)pyridin-3-yl)-2-cyclohexylthiazole-4-carboxamide] | – | 1.14 | 0.635 | 2100 | 2200 | – |
| Nc1sc(-c2c(F)cccc2F)nc1C(=O)Nc1cnccc1N1CCC[C@H](N)C1 (single isomer, unassigned) [Example 25] | – | – | – | 1500 | 1500 | – |
| Nc1sc(-c2ccccc2)nc1C(=O)Nc1cccnc1 [Example 14, 5-amino-2-phenyl-N-(pyridin-3-yl)thiazole-4-carboxamide] | 9.25 | 36.7 | 195 | > 20000 | – | – |
| Nc1scnc1C(=O)Nc1cnccc1N1CCC[C@H](N)C1 [Example 10, (S)-5-amino-N-(4-(3-aminopiperidin-1-yl)pyridin-3-yl)thiazole-4-carboxamide] | 24 | 36.7 | 51.2 | > 20000 | 3600 | – |
| Nc1sc(-c2cn3ccccc3n2)nc1C(=O)Nc1cnccc1N1CCC[C@H](N)C1 [Example 19, (S)-5-amino-N-(4-(3-aminopiperidin-1-yl)pyridin-3-yl)-2-(imidazo[1,2-a]pyridin-2-yl)thiazole-4-carboxamide] | – | 0.735 | 3.55 | 3200 | 581 | > 20000 |

Further lines, results first:

| Ki (PIM3) [nM] | Ki (PIM1) [nM] | Ki (PIM2) [nM] | EC50 (MM1.S cells) [nM] | GI50 (BaF3 PIM1 cells) [nM] | GI50 (BaF3 PIM2 cells) [nM] | Structure (SMILES) |
| --- | --- | --- | --- | --- | --- | --- |
| 91.2 | 29.7 | 259 | > 20000 | 4000 | – | Nc1sc(Cc2ccccc2)nc1C(=O)Nc1cnccc1N1CCC[C@H](NC(=O)C(F)(F)F)C1 [Example 49, (S)-5-amino-2-benzyl-N-(4-(3-(2,2,2-trifluoroacetamido)piperidin-1-yl)pyridin-3-yl)thiazole-4-carboxamide] |
| 0.146 | 0.208 | 0.839 | 660 | 273 | 7600 | CC(C)NC(=O)c1ccc(F)c(-c2nc(C(=O)Nc3cnccc3N3CCC[C@@H](N)C3)c(N)s2)c1 [Example 53, (R)-5-amino-N-(4-(3-aminopiperidin-1-yl)pyridin-3-yl)-2-(2-fluoro-5-(isopropylcarbamoyl)phenyl)thiazole-4-carboxamide] |
| 0.246 | 0.437 | 3.86 | 19900 | 3400 | 12900 | Nc1sc(-c2c(F)cccc2F)nc1C(=O)Nc1cnccc1N1C[C@@H](N)C[C@@H](F)C1 [Example 63, 5-amino-N-(4-((3S,5R)-3-amino-5-fluoropiperidin-1-yl)pyridin-3-yl)-2-(2,6-difluorophenyl)thiazole-4-carboxamide] |
| 12.7 | 3.73 | 33.8 | 11900 | 3200 | – | Nc1sc(Cc2ccccc2)nc1C(=O)Nc1cnccc1N1CCC[C@H](N)C1 [Example 38, (S)-5-amino-N-(4-(3-aminopiperidin-1-yl)pyridin-3-yl)-2-benzylthiazole-4-carboxamide] |
| 0.061 | 0.0269 | 0.495 | 1300 | 2200 | > 20000 | Nc1sc(-c2c(F)cccc2F)nc1C(=O)Nc1cnccc1N1CCC[C@H](O)C1 [Example 52, (S)-5-amino-2-(2,6-difluorophenyl)-N-(4-(3-hydroxypiperidin-1-yl)pyridin-3-yl)thiazole-4-carboxamide] |
| 47.3 | 94.9 | 97.1 | > 20000 | > 20000 | > 20000 | Nc1sc(C2CCCNC2)nc1C(=O)Nc1cnccc1N1CCCC(N)C1 (stereo not drawn) [Example 65, 5-amino-N-(4-(3-aminopiperidin-1-yl)pyridin-3-yl)-2-(piperidin-3-yl)thiazole-4-carboxamide] |
| 0.037 | 0.129 | 0.725 | 2500 | 164 | 6500 | Cc1ccccc1-c1nc(C(=O)Nc2cnccc2N2CCC[C@H](N)C2)c(N)s1 [Example 40, (S)-5-amino-N-(4-(3-aminopiperidin-1-yl)pyridin-3-yl)-2-o-tolylthiazole-4-carboxamide] |
| 18 | 21.6 | 57.7 | – | – | – | Nc1sc(C2CCNC2)nc1C(=O)Nc1cnccc1N1CCCC(N)C1 (stereo not drawn) [Example 64, 5-amino-N-(4-(3-aminopiperidin-1-yl)pyridin-3-yl)-2-(pyrrolidin-3-yl)thiazole-4-carboxamide] |
| 0.028 | 0.032 | 0.12 | 158 | – | – | Nc1sc(-c2c(F)cccc2Cl)nc1C(=O)Nc1cnccc1N1CCC[C@H](N)C1 [Example 55, (S)-5-amino-N-(4-(3-aminopiperidin-1-yl)pyridin-3-yl)-2-(2-chloro-6-fluorophenyl)thiazole-4-carboxamide] |
| 0.487 | 1.33 | 6.84 | 8000 | 1400 | – | N[C@H]1CCCN(c2ccncc2NC(=O)c2csc(-c3ccccc3)n2)C1 [Example 48, (S)-N-(4-(3-aminopiperidin-1-yl)pyridin-3-yl)-2-phenylthiazole-4-carboxamide] |
| – | – | – | 4800 | – | – | N[C@H]1CCCN(c2ccncc2NC(=O)c2csc(-c3c(F)cccc3F)n2)C1 [Example 46, (S)-N-(4-(3-aminopiperidin-1-yl)pyridin-3-yl)-2-(2,6-difluorophenyl)thiazole-4-carboxamide] |
